Experimental data: patent US20120264803A1, “METHOD FOR PREDICTING THERAPEUTIC EFFECTS OF CHEMOTHERAPY ON HEPATOCELLULAR CARCINOMA PATIENTS” (priority 2009, published 2012)

Assays:
[1] = system: hepatocellular carcinoma patients treated with TACE; assay: Comparative clinical study of TSU-68 administration vs non-administration after TACE (progression-free survival); format: in vivo, human
Method: A comparative clinical study was conducted for the TSU-68 administration group and the TSU-68 non-administration group consisting of cases diagnosed as hepatocellular carcinoma that were impossible to treat with hepatectomy and PAT and had been treated with TACE. The antitumor agent used herein for TACE was epirubicin.
The subject cases were randomly assigned to the TSU-68 administration group and the TSU-68 non-administration group. TSU-68 administration was initiated for cases assigned to the TSU-68 administration group within 2 weeks after TACE. TSU-68 was administered orally at a dose of 200 mg per administration twice daily after breakfast and dinner on consecutive days. No further cancer treatment was given to the TSU-68 non-administration group after TACE and thus only follow-up observation was carried out.
Progression-free survival was defined as survival within the period from the day of TACE designated as the initial date of reckoning to any of dates on which the following events was observed, whichever came first.
1. Date on which the presence of progressive disease (hereinafter referred to as “PD”) was confirmed as a result of assessment of best overall response (date of testing). 2. Date on which a test subject died for any reason (date of death). 3. Date on which a test subject was assessed to have experienced clinically obvious deterioration of the disease or to be in need of post-TACE treatment even without confirmation of PD upon assessment of best overall response (date of assessment).
Best overall response was evaluated by measuring tumor diameters by CT and assaying tumor markers (AFP, PIVKA-II, and AFP-L3 fractions) according to New Guideline to Evaluate the Response to Treatment in Solid Tumor (hereinafter referred to as “RECIST”) (J Natl Cancer Inst 92: 205, 2000).
The expression levels of PDGF-BB and IL-8 in blood obtained before TSU-68 administration after TACE were determined using ELISA Kits as described below.
Cut-off points were determined by the statistical analysis technique described below based on the quantified PDGF-BB and IL-8 levels.
(1) The cut-off point for dividing patients into the PDGF-BB hyperexpression group and the PDGF-BB underexpression group was calculated so that the difference between the 6-month-progression-free survival rate for the TSU-68 administration group and the 6-month-progression-free survival rate for the TSU-68 non-administration group was 20% or more for patients in the PDGF-BB hyperexpression group. The cut-off point was 1480 to 2030 pg/ml. (2) The cut-off point for dividing patients into the PDGF-BB hyperexpression group and the PDGF-BB underexpression group was calculated so that the hazard ratio of the TSU-68 administration group to the TSU-68 non-administration group was 0.6 or less for patients in the PDGF-BB hyperexpression group. The cut-off point was 1740 to 1960 pg/ml. (3) The cut-off point for dividing patients into the IL-8 hyperexpression group and the IL-8 underexpression group was calculated so that the difference between the 6-month-progression-free survival rate for the TSU-68 administration group and the 6-month-progression-free survival rate for the TSU-68 non-administration group was 20% or more for cases in the IL-8 hyperexpression group. The cut-off point was 2.1 to 6.6 pg/ml. (4) The cut-off point for dividing patients into the IL-8 hyperexpression group and the IL-8 underexpression group was calculated so that the hazard ratio of the TSU-68 administration group to the TSU-68 non-administration group was 0.6 or less for cases in the IL-8 hyperexpression group. The cut-off point was 2.1 to 10.5 pg/ml.
The PDGF-BB hyperexpression group, the PDGF-BB underexpression group, the IL-8 hyperexpression group, and the IL-8 underexpression group were subjected to survival time analysis of the TSU-68 administration group and the TSU-68 non-administration group with the use of the cut-off points calculated in Example 1.

[2] = system: human cancer cell lines subcutaneously implanted (lung cancer, colon cancer, ovarian cancer); settings: oral administration of TSU-68 alone, Non-Patent Literature 3; cited from earlier work
[3] = IL-8 hyperexpression group, cut-off 2.1 pg/ml, vs non-administration
[4] = IL-8 hyperexpression group, cut-off 6.6 pg/ml, vs non-administration
[5] = IL-8 hyperexpression group, cut-off 10.5 pg/ml, vs non-administration
[6] = IL-8 underexpression group, cut-off 6.6 pg/ml, vs non-administration
[7] = IL-8 underexpression group, cut-off 10.5 pg/ml, vs non-administration
[8] = PDGF-BB hyperexpression group, cut-off 1480 pg/ml, vs non-administration
[9] = PDGF-BB hyperexpression group, cut-off 1740 pg/ml, vs non-administration
[10] = PDGF-BB hyperexpression group, cut-off 1960 pg/ml, vs non-administration
[11] = PDGF-BB hyperexpression group, cut-off 2030 pg/ml, vs non-administration
[12] = PDGF-BB underexpression group, cut-off 1480 pg/ml, vs non-administration
[13] = PDGF-BB underexpression group, cut-off 1740 pg/ml, vs non-administration
[14] = PDGF-BB underexpression group, cut-off 1960 pg/ml, vs non-administration
[15] = PDGF-BB underexpression group, cut-off 2030 pg/ml, vs non-administration
[16] = patients having high PDGF-BB or IL-8 blood levels (summary over cut-off points), vs non-administration
[17] = stratified using reported VCAM cut-off point 2370 pg/ml (data not shown), vs non-administration

Cc1[nH]c(/C=C2\C(=O)Nc3ccccc32)c(C)c1CCC(=O)O [TSU-68, (Z)-5-[(1,2-dihydro-2-oxo-3H-indol-3-ylidene)methyl]2,4-dimethyl-1H-pyrro 1-3-propanoic acid]
6-month-progression-free survival rates ([1]; IL-8 hyperexpression group, cut-off 2.1 pg/ml): 48%
Difference between 6-month-progression-free survival rate [1, 3]: 23%
Hazard ratio [1, 3]: 0.51
6-month-progression-free survival rate ([1]; IL-8 hyperexpression group, cut-off 6.6 pg/ml): 50%
Difference between 6-month-progression-free survival rates [1, 4]: 20%
Hazard ratio [1, 4]: 0.51
6-month-progression-free survival rate ([1]; IL-8 hyperexpression group, cut-off 10.5 pg/ml): 56%
Difference between 6-month-progression-free survival rates [1, 5]: 27%
Hazard ratio [1, 5]: 0.51
6-month-progression-free survival rates ([1]; IL-8 underexpression group, cut-off 2.1 pg/ml): 0%
Difference between 6-month-progression-free survival rate ([1]; IL-8 underexpression group, cut-off 2.1 pg/ml, vs non-administration): −57%
6-month-progression-free survival rate ([1]; IL-8 underexpression group, cut-off 6.6 pg/ml): 39%
Difference between 6-month-progression-free survival rates [1, 6]: 9%
Hazard ratio [1, 6]: 0.92
6-month-progression-free survival rate ([1]; IL-8 underexpression group, cut-off 10.5 pg/ml): 41%
Difference between 6-month-progression-free survival rates [1, 7]: 11%
Hazard ratio [1, 7]: 0.79
6-month-progression-free survival rate ([1]; PDGF-BB hyperexpression group, cut-off 1480 pg/ml): 52%
Difference between 6-month-progression-free survival rates [1, 8]: 21%
Hazard ratio [1, 8]: 0.64
6-month-progression-free survival rate ([1]; PDGF-BB hyperexpression group, cut-off 1740 pg/ml): 52%
Difference between 6-month-progression-free survival rates [1, 9]: 25%
Hazard ratio [1, 9]: 0.59
6-month-progression-free survival rate ([1]; PDGF-BB hyperexpression group, cut-off 1960 pg/ml): 52%
Difference between 6-month-progression-free survival rates [1, 10]: 25%
Hazard ratio [1, 10]: 0.55
6-month-progression-free survival rate ([1]; PDGF-BB hyperexpression group, cut-off 2030 pg/ml): 52%
Difference between 6-month-progression-free survival rates [1, 11]: 24%
Hazard ratio [1, 11]: 0.62
6-month-progression-free survival rate ([1]; PDGF-BB underexpression group, cut-off 1480 pg/ml): 25%
Difference between 6-month-progression-free survival rates [1, 12]: 2%
Hazard ratio [1, 12]: 0.73
6-month-progression-free survival rate ([1]; PDGF-BB underexpression group, cut-off 1740 pg/ml): 40%
Difference between 6-month-progression-free survival rates [1, 13]: 2%
Hazard ratio [1, 13]: 0.85
6-month-progression-free survival rate ([1]; PDGF-BB underexpression group, cut-off 1960 pg/ml): 40%
Difference between 6-month-progression-free survival rates [1, 14]: 7%
Hazard ratio [1, 14]: 0.84
6-month-progression-free survival rate ([1]; PDGF-BB underexpression group, cut-off 2030 pg/ml): 42%
Difference between 6-month-progression-free survival rates [1, 15]: 10%
Hazard ratio [1, 15]: 0.75
6-month-progression-free survival rate ([1]; all cases, TSU-68 200 mg orally twice daily after TACE): 47%
Hazard ratio ([1]; all cases, TSU-68 administration to non-administration group): 0.69
Difference between 6-month-progression-free survival rates ([1]; all cases, TSU-68 administration vs non-administration group): 18%
Difference between 6-month-progression-free survival rates [1, 16]: 22% to 27
Hazard ratio [1, 16]: 0.51 to 0.68
Difference between 6-month-progression-free survival rates [1, 17]: < 20%
Hazard ratio [1, 17]: > 0.6
antitumor effects (tumor growth inhibition) [2]: effective for inhibiting tumor growth
